According to patent US10993983B2, “Cyclic peptide epitopes and small-molecule mimics for inducing autophagy” (TRUSTEES OF TUFTS COLLEGE, priority 2016, dated 2021):
Where no end group is shown, it is not given here. [ ]: non-standard residue; d: D form.

How the values were obtained:
p62 = p62 degradation assay (p62/actin immunoblot);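 for Activity (μM) 10, p62/actin assay activity: HeLa cells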;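 for Activity (μM) 100, p62/actin assay activity: HeLa cells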;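 for Activity (μM) 30, p62/actin assay activity: HeLa cells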;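 for Activity (μM) 50, p62/actin assay activity: HeLa cells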; format: cell-based; parameters: key: −: activity not reported; 0: decreased vs. WT; +: similar to WT; ++: modest increase vs. WT; +++: significant increase vs. WT; details: Table 8, control compound T25, first symbol; for Activity (μM) 5, p62/actin assay activity: 5 μM; for Activity (μM) 10, p62/actin assay activity: 10 μM; for Activity (μM) 30, p62/actin assay activity: 30 μM; for Activity (μM) 50, p62/actin assay activity: 50 μM; for Activity (μM) 100, p62/actin assay activity: 100 μM
Protocol: (§1) Cells were treated with peptide in OPTI-MEM (Thermo Scientific) acidified with 0.15% (v/v) 6N HCl for 3 hour. Cells were rinsed with Dulbecco's phosphate buffered saline (PBS) and lysed in lysis buffer (20 mM HEPES, 150 mM NaCl, 1 mM EDTA, 1% Triton X-100, protease inhibitor cocktail (Roche) on ice for 1 hour. Cell lysates were centrifuged at 16,000 g for 10 min at 4° C. and analyzed by SDS-PAGE and transferred to PVDF membranes. The membranes were blocked 5% non-fat dry milk (NFDM) in PBST (PBS+0.05% Tween-20) for 1 hour, then incubated overnight at 4° C. with primary antibody in 5% NFDM in PBST. The blots were washed with PBST and incubated with HRP-conjugated secondary antibodies diluted in 5% NFDM in PBST for 1 hour at room temperature. Membranes were washed with PBST and visualized with SuperSignal West Pico Chemiluminescent Substrate (Thermo Scientific). Semi-quantitative results were obtained by noting the lowest concentration at which both p62 degradation and LC3-I to LC3-II conversion were observed.
(§2) Compounds 1-10 were evaluated using the assays described in Examples 4 and 5. Activity for each compound was measured in the p62 degradation assay and the LC3 marker assay as described herein. The activity at each concentration of peptide is given as, for example, (0/+) where 0 would be the p62/actin assay activity and + would be the LC3 assay activity.

LC3 = LC3 marker assay (LC3-I to LC3-II conversion immunoblot);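 for Activity (μM) 10, LC3 assay activity: HeLa cells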;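 for Activity (μM) 100, LC3 assay activity: HeLa cells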;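 for Activity (μM) 30, LC3 assay activity: HeLa cells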;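 for Activity (μM) 50, LC3 assay activity: HeLa cells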; format: cell-based; parameters: key: −: activity not reported; 0: decreased vs. WT; +: similar to WT; ++: modest increase vs. WT; +++: significant increase vs. WT; details: Table 8, control compound T25, second symbol; for Activity (μM) 5, LC3 assay activity: 5 μM; for Activity (μM) 10, LC3 assay activity: 10 μM; for Activity (μM) 30, LC3 assay activity: 30 μM; for Activity (μM) 50, LC3 assay activity: 50 μM; for Activity (μM) 100, LC3 assay activity: 100 μM
Protocol: as §1, §2

Sequence: VCNATCHIWH [Compound 34]
- Activity (μM) 5, p62/actin assay activity (p62): 0/0
- Activity (μM) 10, p62/actin assay activity (p62): 0/0
- Activity (μM) 30, p62/actin assay activity (p62): +
- Activity (μM) 50, p62/actin assay activity (p62): +++/+++
- Activity (μM) 100, p62/actin assay activity (p62): +++/+++
- Activity (μM) 5, LC3 assay activity (LC3): 0/0
- Activity (μM) 10, LC3 assay activity (LC3): 0/0
- Activity (μM) 30, LC3 assay activity (LC3): ++
- Activity (μM) 50, LC3 assay activity (LC3): +++/+++
- Activity (μM) 100, LC3 assay activity (LC3): +++/+++

Sequence: VCNATCHIWH [Compound 35]
- Activity (μM) 10, p62/actin assay activity (p62): 0/0
- Activity (μM) 30, p62/actin assay activity (p62): 0
- Activity (μM) 50, p62/actin assay activity (p62): +++
- Activity (μM) 100, p62/actin assay activity (p62): +++
- Activity (μM) 10, LC3 assay activity (LC3): 0/0
- Activity (μM) 30, LC3 assay activity (LC3): +
- Activity (μM) 50, LC3 assay activity (LC3): ++
- Activity (μM) 100, LC3 assay activity (LC3): ++

Sequence: VCNATCHIWH [Compound 36]
- Activity (μM) 50, p62/actin assay activity (p62): 0/0
- Activity (μM) 100, p62/actin assay activity (p62): 0/0
- Activity (μM) 50, LC3 assay activity (LC3): 0/0
- Activity (μM) 100, LC3 assay activity (LC3): 0/0

Sequence: VCNATCHIWH [Compound 44]
- Activity (μM) 50, p62/actin assay activity (p62): 0/0
- Activity (μM) 100, p62/actin assay activity (p62): 0/0
- Activity (μM) 50, LC3 assay activity (LC3): 0/0
- Activity (μM) 100, LC3 assay activity (LC3): 0/0

Sequence: VCNATCHIWH [Compound 48]
- Activity (μM) 50, p62/actin assay activity (p62): +++/+++
- Activity (μM) 100, p62/actin assay activity (p62): +++/+++
- Activity (μM) 50, LC3 assay activity (LC3): +++/+++
- Activity (μM) 100, LC3 assay activity (LC3): +++/+++

Sequence: VCNATCHIWH [Compound 49]
- Activity (μM) 50, p62/actin assay activity (p62): +++/+++
- Activity (μM) 100, p62/actin assay activity (p62): +++/+++
- Activity (μM) 50, LC3 assay activity (LC3): +++/+++
- Activity (μM) 100, LC3 assay activity (LC3): +++/+++

Sequence: VCNATCHIWH [Compound 50]
- Activity (μM) 50, p62/actin assay activity (p62): ++
- Activity (μM) 100, p62/actin assay activity (p62): ++
- Activity (μM) 50, LC3 assay activity (LC3): +++
- Activity (μM) 100, LC3 assay activity (LC3): +++

Sequence: VCNATCHIWH [Compound 51]
- Activity (μM) 50, p62/actin assay activity (p62): +++/+++
- Activity (μM) 100, p62/actin assay activity (p62): +++/+++
- Activity (μM) 50, LC3 assay activity (LC3): +++/+++
- Activity (μM) 100, LC3 assay activity (LC3): +++/+++

Sequence: VCNATCHIWR (V[dC]NAT[dC]HIWR; cysteine pairing not given here) [Compound 38]
- Activity (μM) 50, p62/actin assay activity (p62): 0/0
- Activity (μM) 100, p62/actin assay activity (p62): 0/0
- Activity (μM) 50, LC3 assay activity (LC3): 0/0
- Activity (μM) 100, LC3 assay activity (LC3): 0/0

Sequence: VCNATCRIWR (V[dC]NAT[dC]RIWR; not fully specified (C-terminus); cysteine pairing not given here) [Compound 42]
- Activity (μM) 50, p62/actin assay activity (p62): 0/0
- Activity (μM) 100, p62/actin assay activity (p62): 0/0
- Activity (μM) 50, LC3 assay activity (LC3): 0/0
- Activity (μM) 100, LC3 assay activity (LC3): 0/0

Sequence: VWNATCHIWC [Compound 59]
- Activity (μM) 5, p62/actin assay activity (p62): 0/0
- Activity (μM) 10, p62/actin assay activity (p62): 0/0
- Activity (μM) 30, p62/actin assay activity (p62): 0/0
- Activity (μM) 5, LC3 assay activity (LC3): 0/0
- Activity (μM) 10, LC3 assay activity (LC3): 0/0
- Activity (μM) 30, LC3 assay activity (LC3): 0/0

Sequence: VWNATCHIWC [Compound 65]
- Activity (μM) 50, p62/actin assay activity (p62): 0/0
- Activity (μM) 50, LC3 assay activity (LC3): 0/0
